# From patent US8623862B2, “Derivatives of N-[(1H-pyrazol-1-yl)aryl]-1H-indole or 1H-indazole-3-carboxamide, preparation thereof and applications thereof in therapeutics” (Sanofi, priority 2011, dated 2014)
# Counter-ions that a name gives are not always drawn. Like-named read-outs stand apart in the source and are kept apart here.
# Columns and labels:
# [1] = system: platelet aggregation; test: Inhibition of platelet aggregation ex vivo (rat blood); format: in vivo; conditions: for inhibition at 10 mg/kg: read-out: Inhibition of platelet aggregation ex vivo (rat blood) in %, Gavage (oral) 10 mg/kg
# Procedure: Inhibition of Platelet Aggregation Ex Vivo (Rat Blood)
# Male rats of the Sprague-Dawley strain, weighing 250-300 g, are used at a rate of 6 animals per batch. Each test compound is diluted in a solution of glucose-containing water (glucose 5%) containing 5% of cremophore and 3% of glycofurol.
# The compounds according to the invention are administered by stomach tube (10 ml/kg at 1 mg/ml) two hours before taking the sample or by infusion (1 ml/kg at 10 mg/ml) two hours before taking the sample.
# The platelet-rich plasma (PRP) is obtained by centrifugation of the blood at 300 g for 5 minutes, and the measurements of platelet aggregation are performed as described above.
# The results are calculated using the area under the curve of absorbance measured for 6 minutes, and expressed as percentage (%) of inhibition.
# [2] = system: platelet aggregation; test: Inhibition of platelet aggregation in vitro (rat blood); format: cell-based;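 as to Inhibition of platelet aggregation in vitro (rat blood) in μM: aggregation induced by ADP added as 4 µL of a 250 µM solution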
# How it was run: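 Platelet-rich plasma from male Sprague-Dawley rats (250-300 g), prepared by centrifugation at 300 g for 5 minutes. Aggregation measured at 37° C in an aggregometer. Percentage inhibition derived from area under the absorbance curve over 6 minutes.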
# [3] = rat, gavage (oral), 10 mg/kg, two hours before taking the sample
# [4] = rat platelet-rich plasma, ADP-induced aggregation, area under the curve of absorbance for 6 minutes, read-out: Inhibition of platelet aggregation in vitro (rat blood);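 as to Inhibition of platelet aggregation in vitro (rat blood) in μM: aggregation induced by ADP added as 4 µL of a 250 µM solution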
# [5] = rat, 10 mg/kg, two hours before taking the sample
# [6] = 0.1 h, rat platelet-rich plasma, ADP-induced aggregation, area under the curve of absorbance for 6 minutes, read-out: Inhibition of platelet aggregation in vitro (rat blood);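 as to Inhibition of platelet aggregation in vitro (rat blood) in μM: aggregation induced by ADP added as 4 µL of a 250 µM solution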
# [7] = rat blood, in vitro, read-out: Inhibition of platelet aggregation in vitro (rat blood);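 as to Inhibition of platelet aggregation in vitro (rat blood) in μM: aggregation induced by ADP added as 4 µL of a 250 µM solution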
# [8] = Platelet, 2 h, rat, gavage (oral), 10 mg/kg, two hours before taking the sample
# [9] = Rattus norvegicus, Platelet, 0.1 h, read-out: Inhibition of platelet aggregation in vitro (rat blood) in μM
# [10] = Rattus norvegicus, Platelet, po, 2 h
SMILES,"Inhibition of platelet aggregation ex vivo (rat blood) in %, Gavage (oral) 10 mg/kg [1, 3] [%]","IC50 [2, 7] [µM]",also measured
CCCC(=O)c1cnn(-c2ccc(NC(=O)c3cn(CC(=O)N4CCN(Cc5cc(C)on5)CC4)c4ccc(Cl)cc34)cc2)c1C.Cl [Compound 166],72.0,,
CCCC(=O)c1cnn(-c2ccc(NC(=O)c3cn(CC(=O)O)c4ccc(C)cc34)cc2)c1C [Compound 11],,,"IC50 [2, 4]: 9.6 µM; Inhibition of platelet aggregation ex vivo (rat blood) in %, Infusion (Intravenous) 10 mg/kg [1, 5]: 40.7%"
"CCCC(=O)c1cnn(-c2ccc(NC(=O)c3cn(CC(=O)N4CCN(CCOC(C)=O)CC4)c4ccc(Cl)cc34)cc2)c1C.Cl [Compound 275, 2-{4-[(3-{[4-(4-Butyryl-5-methyl-1H-pyrazol-1-yl)phenyl]carbamoyl}-5-chloro-1H-indol-1-yl)acetyl]piperazin-1-yl}ethyl acetate hydrochloride]",,,"IC50 [2, 6]: 0.2 µM; melting point: 160 °C"
CCCC(=O)c1cnn(-c2ccc(NC(=O)c3cn(CC(=O)N4CCN(CCOCCOC)CC4)c4ccc(Cl)cc34)cc2)c1C.Cl [Compound 145],53.7,0.25,
"CCCC(=O)c1cnn(-c2ccc(NC(=O)c3cn(CC(=O)N4CCN5CCN(C)C(=O)C5C4)c4ccc(Cl)cc34)cc2)c1C (stereo not drawn) [Compound 274, N-[4-(4-Butyryl-5-methyl-1H-pyrazol-1-yl)phenyl]-5-chloro-1-[2-(8-methyl-9-oxooctahydro-2H-pyrazino[1,2-a]pyrazin-2-yl)-2-oxoethyl]-1H-indole-3-carboxamide hydrochloride]",,,"IC50 [2, 6]: 0.1 µM; inhibition at 10 mg/kg [1, 8]: 82.7%"
"CCCC(=O)c1cnn(-c2ccc(NC(=O)c3cn(CC(=O)N4CCN(C)C(C(=O)NC)C4)c4ccc(Cl)cc34)cc2)c1C (stereo not drawn) [Compound 272, N-[4-(4-butyryl-5-methyl-1H-pyrazol-1-yl)phenyl]-5-chloro-1-{2-[4-methyl-3-(methylcarbamoyl)piperazin-1-yl]-2-oxoethyl}-1H-indole-3-carboxamide]",,,"IC50 [2, 6]: 0.21 µM; melting point: 274 °C"
"CCCC(=O)c1cnn(-c2ccc(NC(=O)c3cn(CC(=O)N4CCN5CCNC(=O)C5C4)c4ccc(Cl)cc34)cc2)c1C.Cl (stereo not drawn) [Compound 273, N-[4-(4-Butyryl-5-methyl-1H-pyrazol-1-yl)phenyl]-5-chloro-1-[2-oxo-2-(9-oxooctahydro-2H-pyrazino[1,2-a]pyrazin-2-yl)ethyl]-1H-indole-3-carboxamide hydrochloride]",,,"IC50 [2, 6]: 0.29 µM; melting point: 230 °C"
CCCC(=O)c1cnn(-c2ccc(NC(=O)c3cn(CC(=O)N4CCN(C(C)COC)CC4)c4ccc(Cl)cc34)cc2)c1C.Cl (stereo not drawn) [Compound 179],76.1,0.17,
CCCC(=O)c1cnn(-c2ccc(NC(=O)c3cn(CC(=O)N4CCN(CCF)CC4)c4ccc(Cl)cc34)cc2)c1C.Cl [Compound 142],76.5,0.13,
"CCCC(=O)c1cnn(-c2ccc(NC(=O)c3cn(CC(=O)N4CCN(CC(C)=O)CC4)c4ccc(Cl)cc34)cc2)c1C.Cl [Compound 276, N-[4-(4-Butyryl-5-methyl-1H-pyrazol-1-yl)phenyl]-5-chloro-1-{2-oxo-2-[4-(2-oxopropyl)piperazin-1-yl]ethyl}-1H-indole-3-carboxamide hydrochloride]",,,"IC50 [2, 6]: 0.22 µM; inhibition at 10 mg/kg [1, 8]: 49.9%; melting point: 248 °C"
CCCC(=O)c1cnn(-c2ccc(NC(=O)c3cn(CC(=O)N4CCN(C)CC4)c4ccc(Cl)cc34)cc2)c1C.Cl [Compound 115],50.6,0.32,"Inhibition of platelet aggregation ex vivo (rat blood) in %, Infusion (Intravenous) 10 mg/kg [1, 5]: 78.2%"
CCCC(=O)c1cnn(-c2ccc(NC(=O)c3cn(CC(=O)N4CCN(Cc5ccc(F)cc5)CC4)c4ccc(C)cc34)cc2)c1C.Cl [Compound 147],74.9,0.19,
CCCC(=O)c1cnn(-c2ccc(NC(=O)c3cn(CC(=O)N4CCN(C)CC4)c4ccc(Cl)cc34)c(C#N)c2)c1C [Compound 219],65.1,0.54,
"CCCC(=O)c1cnn(-c2ccc(NC(=O)c3cn(CC(=O)N4CC(C)N(C)C(C)C4)c4ccc(Cl)cc34)cc2)c1C.Cl (stereo not drawn) [Compound 262, N-[4-(4-Butyryl-5-methyl-1H-pyrazol-1-yl)phenyl]-5-chloro-1-[2-oxo-2-(3,4,5-trimethylpiperazin-1-yl)ethyl]-1H-indole-3-carboxamide hydrochloride]",,,"inhibition at 10 mg/kg [1, 8]: 58.8%; melting point: 217 °C"
"CCCC(=O)c1cnn(-c2ccc(NC(=O)c3cn(CC(=O)N4CCN(CCOC)CC4)c4ccc(Cl)cc34)nn2)c1C [Compound 29, N-[6-(4-Butyryl-5-methyl-1H-pyrazol-1-yl)pyridazin-3-yl]-5-chloro-1-{2-[4-(2-methoxyethyl)piperazin-1-yl]-2-oxoethyl}-1H-indole-3-carboxamide hydrochloride]",,,"IC50 [2, 9]: 0.08 µM; inhibition at 1 mg/kg ([1]; Rattus norvegicus, Platelet, iv, 2 h, read-out: Inhibition of platelet aggregation ex vivo (rat blood) in %, Infusion (Intravenous) 1 mg/kg): 76%; inhibition at 10 mg/kg [1, 10]: 86.3%"
CCCC(=O)c1cnn(-c2ccc(NC(=O)c3cn(CC(=O)N4CCN(C)CC4)c4cc(C)c(C)cc34)cc2)c1C.Cl [Compound 107],36.8,0.3,"Inhibition of platelet aggregation ex vivo (rat blood) in %, Infusion (Intravenous) 10 mg/kg [1, 5]: 57.8%"
CCCC(=O)c1cnn(-c2ccc(NC(=O)c3cn(CC(=O)N4CCN(C(C)(C)COC)CC4)c4ccc(Cl)cc34)cc2)c1C.Cl [Compound 180],65.1,0.24,
"CCCC(=O)c1cnn(-c2ccc(NC(=O)c3cn(CC(=O)N4CCN(CCOC)CC4)c4ccc(Cl)cc34)cc2)c1C [Compound 105, N-[4-(4-Butyryl-5-methyl-1H-pyrazol-1-yl)phenyl]-5-chloro-1-{2-[4-(2-methoxyethyl)piperazin-1-yl]-2-oxoethyl}-1H-indole-3-carboxamide hydrochloride]",,,"IC50 ([2]; Platelet, rat blood, in vitro, read-out: Inhibition of platelet aggregation in vitro (rat blood)): 0.32 µM; inhibition at 10 mg/kg [1, 8]: 67.9%"
"CCCC(=O)c1cnn(-c2ccc(NC(=O)c3cn(CC(=O)N4CCN(C)CC4)c4ccc(Cl)cc34)nn2)c1C [Compound 28, N-[6-(4-Butyryl-5-methyl-1H-pyrazol-1-yl)pyridazin-3-yl]-5-chloro-1-[2-(4-methylpiperazin-1-yl)-2-oxoethyl]-1H-indole-3-carboxamide hydrochloride]",,,"IC50 [2, 9]: 0.06 µM; inhibition at 3 mg/kg ([1]; Rattus norvegicus, Platelet, iv, 2 h, read-out: Inhibition of platelet aggregation ex vivo (rat blood) in %, Infusion (Intravenous) 3 mg/kg): 79%; inhibition at 10 mg/kg [1, 10]: 73.5%"
CCCC(=O)c1cnn(-c2ccc(NC(=O)c3cn(CC(=O)N4CCN(CCF)CC4)c4ccc(C)cc34)cc2)c1C.Cl [Compound 133],74.2,0.32,
CCCC(=O)c1cnn(-c2ccc(NC(=O)c3cn(CC(=O)N4CC(C)N(CCOC)C(C)C4)c4ccc(Cl)cc34)cc2)c1C.Cl (stereo not drawn),,,melting point: 187 °C
CCCC(=O)c1cnn(-c2ccc(NC(=O)c3cn(CC(=O)N4CCN(C)CC4C)c4ccc(Cl)cc34)cc2)c1C.Cl (stereo not drawn) [Compound 177],63.9,0.37,
CCCC(=O)c1cnn(-c2ccc(NC(=O)c3cn(CC(=O)N4CCN(CCOC)CC4)c4ccc(C)cc34)cc2)c1C.Cl [Compound 119],61.1,0.18,
CCCC(=O)c1cnn(-c2ccc(NC(=O)c3cn(CC(=O)N4CCCC4C(F)(F)F)c4ccc(Cl)cc34)cc2)c1C (stereo not drawn) [Compound 170],71.5,0.12,
CCCC(=O)c1cnn(-c2ccc(NC(=O)c3cn(CC(=O)N4CCN(CC(F)F)CC4)c4ccc(C)cc34)cc2)c1C [Compound 118],,0.29,
CCCC(=O)c1cnn(-c2ccc(NC(=O)c3cn(CC(=O)N(C)CCO)c4ccc(Cl)cc34)nn2)c1C [Compound 38],,,"IC50 [2, 4]: 0.07 µM"
CCCC(=O)c1cnn(-c2ccc(NC(=O)c3cn(CC(=O)N4CCN(CC(=O)N(C)C)CC4)c4ccc(Cl)cc34)cc2)c1C [Compound 154],,0.15,
